From US20240261204A1, “ASCORBIC ACID POLYPEPTIDE DERIVATIVE, PREPARATION METHOD THEREFOR, AND APPLICATION THEREOF” (HARVEST BIOTECH CO., LTD, priority 2021, published 2024)

How the values were obtained:
rabbit corneal cell SIRC = assay: SIRC corneal cell irritation test (ocular irritation SIRC model); type: cell-based
Experimental: Detection method was rabbit corneal cell SIRC cell viability test. To-be-tested cells were washed 1˜2 times with PBS. 100 μL of MEM complete medium and 10 μL of CCK-8 solution were added to each well, and placed in a carbon dioxide incubator, for incubation of 2˜4 h. The absorbancy (OD) value was measured at 450 nm wavelength. CCK-8 reagent can be replaced with MTT.

tyrosinase = biological target: T1, tyrosinase (Mus musculus, UniProt P11344); assay: Enzyme activity test for tyrosinase in α-MSH-induced B16 cells; type: cell-based; settings: 24.25 μM/10 ppm; inducer 0.1 μg/mL (63 nM) α-MSH
T1 construct: endogenous in cells; host or cells: B16 mouse melanoma cells
T1 sequence (P11344 19-533): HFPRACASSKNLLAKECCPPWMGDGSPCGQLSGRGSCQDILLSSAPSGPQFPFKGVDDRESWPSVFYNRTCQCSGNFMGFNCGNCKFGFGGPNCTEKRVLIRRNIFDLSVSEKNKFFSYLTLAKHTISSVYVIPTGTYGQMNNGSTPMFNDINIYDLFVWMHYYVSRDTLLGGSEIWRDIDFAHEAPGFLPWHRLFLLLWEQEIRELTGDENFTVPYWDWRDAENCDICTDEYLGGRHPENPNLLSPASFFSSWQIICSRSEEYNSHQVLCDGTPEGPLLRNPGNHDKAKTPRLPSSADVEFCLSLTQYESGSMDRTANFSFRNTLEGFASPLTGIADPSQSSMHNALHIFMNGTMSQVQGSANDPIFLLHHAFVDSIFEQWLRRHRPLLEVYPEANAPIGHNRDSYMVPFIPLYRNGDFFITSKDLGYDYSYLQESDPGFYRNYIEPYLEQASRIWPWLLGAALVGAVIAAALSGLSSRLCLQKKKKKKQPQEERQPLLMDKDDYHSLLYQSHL
Experimental: (§1) A method for in vitro testing whitening efficacy for B16 mouse melanoma cells was designed according to Association Standard T/SHRH 021-2019 for cosmetics whitening efficacy test, in combination with NCBI and CNKI literature research:
Cell samples having been treated by an inducer (α-MSH) and a to-be-tested substance were placed in a 96-well cell culture plate, for repeated freeze-thawing lysis. To each well 100 μL of 0.1˜0.5% levodopa was added, incubation was performed in a 37° C. cell incubator for about 2 h. the absorbancy (OD) value was measured at 450 nm wavelength.

B16 mouse melanoma cells = assay: Measurement of melanin content in α-MSH-induced B16 cells; type: cell-based; settings: for melanin inhibition (in words): 24.25 μM (about 10 ppm), inducer 0.1 μg/mL (63 nM) α-MSH
Experimental: as §1
Cell samples having been treated by the inducer (α-MSH) and the to-be-tested substance were placed in a 6-well cell culture plate. 0.5˜2 mL of cell lysate was added. The culture plate was allowed to stand in a 65° C. constant-temperature oven for 2 h. Then, after the lysate was uniformly mixed, the lysate was added to a 96-well assay plate at 150 μL/well. The absorbancy (OD) value was measured at 450 nm wavelength.

[1] = tested on: Human immortalized keratinocytes HaCaT; settings: 24.25 μM; HaCaT cells
Experimental: It was tested whether ATP in HaCaT cells would be affected by EAC-L-carnosine. Human immortalized keratinocytes HaCaT having been treated with the test substance were fully lysed using a certain amount of cell lysate, and centrifuged at 4° C. and 12000 g for 5 min. Supernatant was taken, and cell lysis samples of each experimental group were added to a 96-well assay plate (opaque) at 20 μL/well. ATP detection solution was further added at 100 μL/well. The plate was left to stand at room temperature for 3˜5 min. Self-luminescence intensity was detected using a full-waveband plate reader.

H2O2-induced HaCaT cells = assay: Anti-aging repair test for stratum corneum cell under oxidative stress (H2O2); type: cell-based, human; settings: 24 h sample repair after H2O2 damage
Description: In order to study the anti-aging repair efficacy of the raw material of the present disclosure to stratum corneum cell under oxidative stress, according to Anti-wrinkly and Firming Lifting Efficacy Test of Cosmetics—In vitro Test Method of Reactive Oxygen Species (ROS) Inhibition with keratinocytes (Association Standard T/SHRH 032-2020), oxidative damage cell models were constructed with H2O2-induced HaCaT cells, and relative proliferation rate and ROS expression quantity of the cells were respectively measured.
Washing was performed for 3˜5 times with a serum-free culture medium. 100 μL of serum-free culture medium was added.

[2] = tested on: Human immortalized keratinocytes HaCaT; settings: about 24 μM/10 ppm; UVA 15 J/cm^2
Experimental: The plate was placed under a specific ultraviolet device, and UVA irradiation dose was 15 J/cm^2. After the induction was completed, the drug-containing PBS was removed, and replaced with a culture medium containing the to-be-tested sample, and they were placed in a carbon dioxide incubator.
ROS detection: after 24 h, a certain amount of DCFH-DA working solution was used in replacement. Incubation was performed in the dark for 15˜30 min. Washing was performed for 3˜5 times with serum-free culture medium. 100 μL of serum-free culture medium was added.
Cell viability detection: after 24 h, a serum-free culture medium containing 10% of CCK-8 was used in replacement. After incubation of 2˜4 h in a carbon dioxide incubator, an OD value was detected at 450 nm wavelength.
HaCat with damage induced by a certain dose of UVA was chosen, to construct a keratinocyte UVA damage cell model.

[3] = tested on: human primary fibroblasts FB; assay: Synthesis test of type I collagen of fibroblast; type: cell-based; settings: 24.25 μM/10 ppm; FB supernatant, ELISA
Experimental: According to Anti-wrinkly and Firming Lifting Efficacy Test of Cosmetics—In vitro Test Method of Collagen I Contents with fibroblasts (Association Standard T/SHRH 032-2020), human primary fibroblasts FB were used to measure influence of each raw material group on collagen secretion of FB at a concentration (24.25 μM/10 ppm).
The plate was placed in a carbon dioxide incubator for incubation for 24 h+2 h. After incubation was finished, 200 μL of cell culture supernatant was collected per well in a 1.5 mL sterile centrifuge tube, and stored frozen in an ultra-low temperature freezer at −80° C.
Human type I collagenase immunization kit was used for ELISA detection. First, a standard was used for detection and a standard curve was plotted, and then a collagen content contained in the fibroblast supernatant diluted at an appropriate ratio was measured.

[4] = tested on: HFF human foreskin fibroblast; assay: Fibroblast anti-aging repair test under UVA photoaging stress; type: cell-based; settings: about 24 μM/10 ppm; UVA 5 J/cm^2
Experimental: 100 μL of serum-free culture medium was added.
HYP (cell lysate) content detection: a hydroxyproline (HYP) content detection kit was used. First, a HYP standard was used for detection and a standard curve was plotted, and then a HYP […] content contained in the fibroblast lysate diluted at an appropriate ratio was measured.
Type I collagen content detection: human type I collagenase (Col I) immunization kit was used for ELISA detection. First, a type I collagen standard was used for detection and a standard curve was plotted, and then a collagen content contained in the fibroblast supernatant diluted at an appropriate ratio was measured.

Skin [5] = assay: Efficacy for actual volunteer population (skin elasticity and skin tone, CK instrument); type: in vivo, human; settings: 20 ppm in basic cream, whole face; 14th and 28th days
Description: Test population: experimental group of 15 people, placebo group of 15 people (31-54 years old, female).
Method of use: volunteers used the cream once every morning and evening, with 1 g per use, and uniformly applied the cream on the whole face.
Test instrument: CK instrument.
Test method: using cutometer and Colorimeter probes of the CK instrument to respectively perform a skin elasticity test and a skin tone test on a random side cheek of each volunteer, in a constant-temperature and constant-humidity environment, […]

3T3 cell = settings: GB/T 21769-2008
Blood cell = settings: Toxicology in Vitro 13 (1999) 343~354
Skin [6] = settings: GB17149.2-1997

CCOC1=C(O)C(=O)O[C@@H]1[C@@H](O)COC(=O)[C@H](Cc1c[nH]cn1)NC(=O)CCN [Example 1, 3-O-ethyl ascorbic acid-L-carnosine]
SIRC irritation conclusion (rabbit corneal cell SIRC; 10 ppm solution sample): no irritant | CSR (SIRC cell viability) (rabbit corneal cell SIRC; 10 ppm solution sample, SN/T 3084.2-2014): 106.0 | Test Conclusion, Ocular irritation SIRC model (rabbit corneal cell SIRC; OECD 491): pass | tyrosinase inhibition versus EAC, L-carnosine and their physical mixture (tyrosinase): better capability of inhibiting tyrosinase | melanin inhibition (in words) (B16 mouse melanoma cells; listed as EAC-L-Carnosine): significant effect of inhibiting melanin secretion | melanin inhibition (in words) (B16 mouse melanoma cells; listed as EAC-L-carnosine): significantly improved capability of inhibiting final melanin | down-regulation of melanin secretion (B16 mouse melanoma cells; 24.25 μM, B16 cells, α-MSH inducer): 27.85% | improvement of ATP expression compared with blank group [1]: 25.0% | ROS expression quantity after H2O2 damage (H2O2-induced HaCaT cells): significantly down-regulate the ROS expression quantity | cell activity after H2O2 damage (H2O2-induced HaCaT cells): significantly improve cell activity | activity of keratinocytes after UVA irradiation [2]: up-regulating the activity of keratinocytes after UVA irradiation | generation of free radical ROS after UVA, HaCaT [2]: significantly inhibiting the generation of free radical ROS | hydroxyproline HYP after UVA, HaCaT [2]: significantly activating collagen precursor hydroxyproline HYP | collagen I generation versus EAC, dipeptide monomer and their mixture [3]: more significant effect on promoting collagen generation | activity of fibroblasts after UVA irradiation [4]: significantly up-regulating the activity of fibroblasts after UVA irradiation | generation of free radical ROS after UVA, HFF [4]: significantly inhibiting the generation of free radical ROS | hydroxyproline HYP after UVA, HFF [4]: significantly activating collagen precursor hydroxyproline HYP | ITA skin tone of the test group population (Skin [5]): significant trend of elevation | HET-CAM irritation conclusion (chorioallantoic membrane; 10 ppm solution sample): non-irritant | IS (HET-CAM) (chorioallantoic membrane; 10 ppm solution sample, SN/T 2329-2009): 0 | Test Conclusion, Ocular irritation HET-CAM model (chorioallantoic membrane; SN329-2009): pass | Test Conclusion, Phototoxicity 3T3 cell model (3T3 cell): pass | Test Conclusion, Blood cell hemolysis test model (Blood cell): pass | Test Conclusion, Skin patch test and trial test (Skin [6]): pass
